Consider one compound from PMC12656268, “Venom Peptides Across Asian and American Tarantulas Utilize Dual Pharmacology to Target Activation and Fast Inactivation of Voltage-Gated Sodium Channels” (Toxins, 2025).

One assay has as its target NaV1.3 (Homo sapiens, UniProt Q9NY46). The assay is described as follows: Slowing of fast inactivation of NaV1.3. The format is cell-based. The method, then: Sodium channel currents were recorded from HEK293 cells expressing human NaV isoforms together with the β1 auxiliary subunit (SB Drug Discovery, Glasgow, UK) using the QPatch 16X automated whole-cell patch-clamp platform (Sophion Bioscience A/S, Ballerup, Denmark). The external recording solution contained (in mM) the following: 140 NaCl, 3 KCl, 1 CaCl2, 1 MgCl2, 0.1 CdCl2, 20 tetraethylammonium chloride (TEA-Cl), and 5 HEPES; pH was adjusted to 7.3 and osmolarity to 320 mOsm. The internal (pipette) solution consisted of (in mM) the following: 140 CsF, 10 NaCl, 10 HEPES, and 1/5 EGTA/CsOH, also adjusted to pH 7.3 and 320 mOsm. Cells were voltage-clamped at a holding potential of −80 mV, and inward Na^+ currents were evoked by 20 ms depolarizing pulses to 0 mV following a 200 ms hyperpolarizing prepulse to −120 mV. To obtain concentration–response curves, cells at holding potential were incubated for 5 min with increasing concentrations of Oa1a peptides. For determining the potency of Oa1a peptides to inhibit peak current, the maximum peak current within the 20 ms at 0 mV was measured. For determining the potency of Oa1a-NH2 to slow fast inactivation, peak current values were measured at 20 ms of the 0 mV depolarization step. Ion currents (INa) were plotted as I/Imax, where I = current value and Imax = highest current value within the experiment.
(§1) For calcium influx experiments, bioactivity comparisons between venom fractions and controls were based on the difference between the maximal and minimal fluorescence intensity values obtained from single-replicate assays. Electrophysiological data analysis was conducted using GraphPad Prism (version 8; GraphPad Software, San Diego, CA, USA). Nonlinear regression was applied to fit the concentration–response relationships using a variable Hill slope: log(inhibitor) versus normalized response for determining IC50 values, and log(agonist) versus normalized response for EC50 calculations. Reversibility and dissociation kinetics were analyzed by fitting data with a single-phase exponential decay model, while voltage-dependence of steady-state activation and inactivation parameters were derived from Boltzmann sigmoid fits of normalized conductance (G/Gmax) or current (I/Imax) values to determine the half-activation or half-inactivation voltages (V50). Data are expressed as mean ± SEM, where n represents the number of individual cells analyzed.

The subject of the next assay is hNaV1.1 to hNaV1.7. Kind of assay: NaV subtype preference across NaV1.1 to NaV1.7, patch clamp. It is filed as cell-based, human. As to conditions: NaV1.1 to NaV1.7, closed-state voltage protocol. The method, then:
Unless otherwise specified, all cell culture reagents were obtained from Life Technologies (Carlsbad, CA, USA). The human neuroblastoma cell line SH-SY5Y (ATCC CRL-2266; Manassas, VA, USA) was maintained in RPMI medium supplemented with 15% fetal bovine serum (FBS) and 2 mM L-glutamine. HEK293 cells stably expressing human NaV channel isoforms together with the β1 auxiliary subunit (SB Drug Discovery, Glasgow, UK) were propagated in Minimal Essential Medium (MEM; Sigma-Aldrich, St. Louis, MO, USA) containing 10% FBS, 100 U/mL penicillin, 100 µg/mL streptomycin, 2 mM L-glutamine, and selective antibiotics (blasticidin, geneticin, and zeocin) at concentrations recommended by the supplier. HEK293T cells expressing the human CaV3.2 channel (a generous gift from Prof. Emmanuel Bourinet, Institut de Génomique Fonctionnelle, Université de Montpellier, France, and Prof. Edward Perez-Reyes, University of Virginia School of Medicine, USA) were grown in Dulbecco’s MEM supplemented with 10% FBS, 100 U/mL penicillin, 100 µg/mL streptomycin, and 750 µg/mL geneticin.
Sodium channel currents were recorded from HEK293 cells expressing human NaV isoforms together with the β1 auxiliary subunit (SB Drug Discovery, Glasgow, UK) using the QPatch 16X automated whole-cell patch-clamp platform (Sophion Bioscience A/S, Ballerup, Denmark). The external recording solution contained (in mM) the following: 140 NaCl, 3 KCl, 1 CaCl2, 1 MgCl2, 0.1 CdCl2, 20 tetraethylammonium chloride (TEA-Cl), and 5 HEPES; pH was adjusted to 7.3 and osmolarity to 320 mOsm. The internal (pipette) solution consisted of (in mM) the following: 140 CsF, 10 NaCl, 10 HEPES, and 1/5 EGTA/CsOH, also adjusted to pH 7.3 and 320 mOsm. […] For determining the potency of Oa1a peptides to inhibit peak current, the maximum peak current within the 20 ms at 0 mV was measured. For determining the potency of Oa1a-NH2 to slow fast inactivation, peak current values were measured at 20 ms of the 0 mV depolarization step. […]
as §1, with “Electrophysiological data analysis was conducted using GraphPad Prism (version 8; GraphPad Software, San Diego, CA, USA). Nonlinear regression was applied to fit the concentration–response relationships using a variable Hill slope: log(inhibitor) versus normalized response for determining IC50 values, and log(agonist) versus normalized response for EC50 calculations.” left out

Positions of bridges follow the written chain, without caps; N, C: chain ends. Residues, ends and D or L forms follow the SMILES beside them.

Sequence of NaV1.3 (Q9NY46 whole entry, canonical isoform): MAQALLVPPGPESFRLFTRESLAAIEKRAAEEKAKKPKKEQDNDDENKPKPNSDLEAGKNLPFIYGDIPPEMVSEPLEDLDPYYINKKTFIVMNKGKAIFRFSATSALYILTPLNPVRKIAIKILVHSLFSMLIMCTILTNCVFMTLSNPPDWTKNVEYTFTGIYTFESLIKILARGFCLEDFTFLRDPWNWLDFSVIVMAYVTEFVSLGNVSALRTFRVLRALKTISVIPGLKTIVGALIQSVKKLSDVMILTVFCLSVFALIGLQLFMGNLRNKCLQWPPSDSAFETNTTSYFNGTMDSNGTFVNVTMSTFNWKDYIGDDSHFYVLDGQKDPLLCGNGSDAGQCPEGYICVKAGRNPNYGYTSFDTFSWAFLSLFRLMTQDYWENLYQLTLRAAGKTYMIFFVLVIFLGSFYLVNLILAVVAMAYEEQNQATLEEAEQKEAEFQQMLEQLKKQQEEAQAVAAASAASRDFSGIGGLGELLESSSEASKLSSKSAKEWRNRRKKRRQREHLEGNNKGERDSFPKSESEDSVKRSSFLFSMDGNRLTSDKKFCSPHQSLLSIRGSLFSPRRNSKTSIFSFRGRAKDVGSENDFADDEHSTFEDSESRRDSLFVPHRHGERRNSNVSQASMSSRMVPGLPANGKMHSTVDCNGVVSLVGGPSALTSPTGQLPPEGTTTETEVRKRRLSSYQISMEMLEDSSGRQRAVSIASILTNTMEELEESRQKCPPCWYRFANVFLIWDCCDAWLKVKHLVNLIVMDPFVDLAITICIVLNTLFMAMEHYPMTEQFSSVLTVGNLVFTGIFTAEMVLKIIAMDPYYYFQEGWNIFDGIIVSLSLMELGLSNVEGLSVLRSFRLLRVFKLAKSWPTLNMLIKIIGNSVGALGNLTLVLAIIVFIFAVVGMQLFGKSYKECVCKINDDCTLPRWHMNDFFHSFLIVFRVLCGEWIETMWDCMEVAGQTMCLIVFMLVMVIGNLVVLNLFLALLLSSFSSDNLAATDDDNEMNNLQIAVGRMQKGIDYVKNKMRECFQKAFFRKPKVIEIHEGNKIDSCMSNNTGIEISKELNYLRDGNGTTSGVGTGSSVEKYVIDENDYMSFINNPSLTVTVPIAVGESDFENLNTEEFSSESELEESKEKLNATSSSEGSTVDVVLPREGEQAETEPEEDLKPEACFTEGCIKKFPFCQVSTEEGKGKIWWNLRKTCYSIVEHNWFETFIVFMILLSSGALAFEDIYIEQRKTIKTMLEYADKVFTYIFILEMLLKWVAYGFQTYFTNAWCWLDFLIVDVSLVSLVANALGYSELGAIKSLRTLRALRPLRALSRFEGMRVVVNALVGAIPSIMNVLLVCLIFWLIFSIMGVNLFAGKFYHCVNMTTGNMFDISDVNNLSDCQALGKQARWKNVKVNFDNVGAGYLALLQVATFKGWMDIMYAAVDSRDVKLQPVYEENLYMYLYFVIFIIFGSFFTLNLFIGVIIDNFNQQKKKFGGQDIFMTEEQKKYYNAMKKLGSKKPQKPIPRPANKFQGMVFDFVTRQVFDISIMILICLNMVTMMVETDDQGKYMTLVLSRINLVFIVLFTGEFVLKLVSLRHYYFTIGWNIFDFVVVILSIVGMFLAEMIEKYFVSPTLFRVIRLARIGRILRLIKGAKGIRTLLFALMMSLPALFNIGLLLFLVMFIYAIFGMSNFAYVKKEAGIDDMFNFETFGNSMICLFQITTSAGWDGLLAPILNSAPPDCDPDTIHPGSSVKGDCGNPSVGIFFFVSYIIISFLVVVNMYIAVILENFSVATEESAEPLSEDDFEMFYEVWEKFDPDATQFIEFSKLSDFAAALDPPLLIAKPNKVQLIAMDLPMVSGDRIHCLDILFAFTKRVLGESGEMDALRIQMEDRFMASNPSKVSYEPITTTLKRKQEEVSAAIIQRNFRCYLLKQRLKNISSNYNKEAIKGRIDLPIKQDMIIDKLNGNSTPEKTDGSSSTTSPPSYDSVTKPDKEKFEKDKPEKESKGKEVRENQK
Sequence of NaV1.3 (Q07699 19-218, further chain): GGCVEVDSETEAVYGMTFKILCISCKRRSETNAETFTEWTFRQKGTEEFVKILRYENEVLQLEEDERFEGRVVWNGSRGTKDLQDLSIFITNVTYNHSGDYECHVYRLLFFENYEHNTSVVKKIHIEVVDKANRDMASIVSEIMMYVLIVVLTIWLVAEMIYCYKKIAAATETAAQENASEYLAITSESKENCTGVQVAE

Consider `CC(C)C[C@@H]1NC(=O)[C@H](Cc2ccccc2)NC(=O)[C@H](Cc2ccc(O)cc2)NC(=O)[C@H](CCCNC(=N)N)NC(=O)[C@@H](NC(=O)[C@H](CCC(=O)O)NC(=O)CN)CSSC[C@@H]2NC(=O)[C@@H]3CSSC[C@@H](C(=O)N[C@H](C(=O)N[C@@H](Cc4c[nH]c5ccccc45)C(=O)N[C@@H](CC(=O)O)C(=O)N[C@@H](Cc4c[nH]c5ccccc45)C(=O)N[C@H](C(=O)N[C@@H](Cc4ccccc4)C(=O)O)[C@@H](C)O)C(C)C)NC(=O)[C@H](Cc4c[nH]c5ccccc45)NC(=O)[C@H](CCC(N)=O)NC(=O)[C@H](Cc4c[nH]cn4)NC(=O)[C@H](CCCCN)NC(=O)[C@H](CC(N)=O)NC(=O)[C@H](Cc4c[nH]cn4)NC(=O)[C@H](CSSC[C@H](NC(=O)CNC(=O)CNC1=O)C(=O)N[C@@H](CO)C(=O)N[C@@H](CCC(N)=O)C(=O)NCC(=O)N[C@@H](CCC(=O)O)C(=O)N[C@@H](CCCCN)C(=O)N3)NC(=O)[C@H](C(C)C)NC(=O)[C@H](CC(C)C)NC(=O)[C@H](Cc1c[nH]cn1)NC(=O)[C@H](CCC(=O)O)NC2=O` [rOa1a] (H-GECRYFLGGCSQGEKCCEHLVCHNKHQWCVWDWTF-OH; disulfide 3-17, 10-22, 16-29; N-terminus and C-terminus assumed), for which, at NaV1.3 (closed-state voltage protocol, current traces, concentrations up to those of IC50 curves), the “Slowing of fast inactivation of NaV1.3 (in words)” value is “strongly slowing the fast inactivation of NaV1.3”. For the same compound, on NaV1.3 (ratio of EC50 values), the “Fold less potency in slowing fast inactivation of NaV1.3 compared to sOa1a-NH2” value came to 4.8 fold. Further, the “NaV subtype preference of inhibition (in words)” value is “preference for inhibiting NaV1.2, NaV1.3, NaV1.6, and NaV1.7” with hNaV1.1 to hNaV1.7; “preference for inhibiting NaV1.2, NaV1.6, and NaV1.7” with hNaV1.1 to hNaV1.7 (listed as recombinant Oa1a).
